One data set has as its system influenza virus. The settings on record: cited from earlier work.
Data set [1] has as its system some other cellular lines. The settings on record: cited from earlier work.
A further data set is described as follows: in vitro. The settings on record: human.
The subject of data set [2] is virus of hepatitis C strain JFH-1 (genotype 2a). The data set is described as follows: microbe, parasite or virus in culture. The conditions noted are these: for Therapeutic index SI50 = TC50/IC50: HCV; for IC50: Hepatitis C virus, Huh-7.5.1, Huh7.5.1 cells, HCV JFH-1, 72 hours incubation, read-out: IC50 (IC50^HCV, antiviral activity). The format is cell-based.

The values below come from US8329689B2 (priority 2006, dated 2012).

Each structure is given as a SMILES string.

Consider `CCOC(=O)c1c(CSc2ccccc2)n(C)c2cc(Br)c(O)c(CN(C)C)c12.Cl` [Arbidol, ethyl 6-bromo-4-[(dimethylamino)methyl]-5-hydroxy-1-methyl-2-(phenylthiomethyl)-1H-indole-3-carboxylate hydrochloride], for which the IC50 in the data set with influenza virus was 23.2 MκΓ/ml. For the same compound, the TC50 in data set [1] is 15 to 25 µg/mL.

In the case of `CCOC(=O)c1c(CN(C)C)n(C)c2cc(-c3cccnc3)c(O)c(CN3CCCC3)c12.Cl.Cl.Cl` [1.1.5(2c), ethyl 2-((dimethylamino)methyl)-5-hydroxy-1-methyl-6-(pyridin-3-yl)-4-(pyrrolidin-1-ylmethyl)-1H-indole-3-carboxylate hydrochloride], the CC50 in the data set “in vitro” is 75 µM. In data set [2], the “Therapeutic index SI50 = TC50/IC50” value turned out to be 11 and the IC50 was 7 µM.

`CCOC(=O)c1c(CO)n(C)c2cc(-c3cccnc3)c(O)c(CN(C)C)c12.Cl.Cl` [1.1.2(35)] registered a CC50 in the data set “in vitro” above 100 µM. Also, in data set [2], the “Therapeutic index SI50 = TC50/IC50” value was above 16 and the IC50 worked out at 6 µM.
